Reference: patent US20150297605A1, “METHODS FOR TREATING CANCER USING TOR KINASE INHIBITOR COMBINATION THERAPY” (Signal Pharmaceuticals, LLC, priority 2014, published 2015)

Assays:
Format in all cases: cell-based
[1] = test system: BT-549 breast cancer cell line; assay: Anti-proliferation assay, synergy score, BT-549; details: in combination with Compound 1, 72 h, mean self cross score + 2σ 3.94
Protocol: (§1) Anti-Proliferation Assay. Cells were thawed from a liquid nitrogen preserved state. Once cells expanded and divided at their expected doubling times, screening began.
(§2) Cells were equilibrated in assay plates via centrifugation and placed in incubators attached to the Dosing Modules at 37° C. for twenty-four hours before treatment. […] These T zero (T0) plates were read using ultra-sensitive luminescence on Envision Plate Readers. Treated assay plates were incubated with compound (single compound or combination) for seventy-two hours. After seventy-two hours, platesweare developed for endpoint analysis using ATPLite. […] The calculation for synergy score is provided below.
(§3) Growth Inhibition (GI) was used as a measure of cell viability. The cell viability of vehicle was measured at the time of dosing (T0) and after seventy-two hours (T72). […] A GI 200% represents complete death of all cells in the culture well. Compounds reaching an activity plateau of GI 200% are considered cytotoxic. GI is calculated by applying the following test and equation: […]
(§4) where T is the signal measure for a test article, V is the vehicle-treated control measure, and V0 is the vehicle control measure at time zero. This formula is derived from the Growth Inhibition calculation used in the National Cancer Institute's NCI-60 high throughput screen.
(§5) Synergy Score Analysis. Synergy scores were determined using the Chalice Software (Zalicus Inc., Cambridge Mass.). […] The Synergy Score is calculated as: […]
(§6) The fractional inhibition for each component agent and combination point in the matrix was calculated relative to the median of all vehicle-treated control wells. […]
(§7) In order to objectively establish hit criteria for the combination screen analysis, twenty compounds were selected to be self-crossed across the seventeen cell line panel as a means to empirically determine a baseline additive, non-synergistic response. The identity of the twenty self-cross compounds was determined by selecting compounds with a variety of maximum response values and single agent dose response steepness.

[2] = test system: HCC-1187 breast cancer cell line; assay: Anti-proliferation assay, synergy score, HCC-1187; details: in combination with Compound 1, 72 h, mean self cross score + 2σ 4.80
Protocol: as §1, §2, §3, §4, §5, §6, §7

[3] = test system: HCC-1500 breast cancer cell line; assay: Anti-proliferation assay, synergy score, HCC-1500; details: in combination with Compound 1, 72 h, mean self cross score + 2σ 4.17
Protocol: as §1, §2, §3, §4, §5, §6, §7

[4] = test system: HCC-1806 breast cancer cell line; assay: Anti-proliferation assay, synergy score, HCC-1806; details: in combination with Compound 1, 72 h, mean self cross score + 2σ 5.05
Protocol: as §1, §2, §3, §4, §5, §6, §7

[5] = test system: HCC-1428 breast cancer cell line; assay: Anti-proliferation assay, synergy score, HCC-1428; details: in combination with Compound 1, 72 h, mean self cross score + 2σ 3.22
Protocol: as §1, §2, §3, §4, §5, §6, §7

[6] = test system: MDA-MB-453 breast cancer cell line; assay: Anti-proliferation assay, synergy score, MDA-MB-453; details: in combination with Compound 1, 72 h, mean self cross score + 2σ 2.99
Protocol: as §1, §2, §3, §4, §5, §6, §7

[7] = test system: HCC-1937 breast cancer cell line; assay: Anti-proliferation assay, synergy score, HCC-1937; details: in combination with Compound 1, 72 h, mean self cross score + 2σ 2.89
Protocol: as §1, §2, §3, §4, §5, §6, §7

[8] = test system: BT-20 breast cancer cell line; assay: Anti-proliferation assay, synergy score, BT-20; details: in combination with Compound 1, 72 h, mean self cross score + 2σ 3.23
Protocol: as §1, §2, §3, §4, §5, §6, §7

[9] = test system: BT-474 breast cancer cell line; assay: Anti-proliferation assay, synergy score, BT-474; details: in combination with Compound 1, 72 h, mean self cross score + 2σ 3.37
Protocol: as §1, §2, §3, §4, §5, §6, §7

[10] = test system: MDA-MB-175-VII breast cancer cell line; assay: Anti-proliferation assay, synergy score, MDA-MB-175-VII; details: in combination with Compound 1, 72 h, mean self cross score + 2σ 2.82
Protocol: as §1, §2, §3, §5, §6

[11] = test system: 5637 (bladder cancer, romidepsin sensitive cell line); assay: Anti-proliferation assay (CellTiter-Glo), Bliss independence model, 5637; details: combination treatment with Romidepsin, 5637 (S), 72 h, greater than 10% considered synergistic
Protocol: (§8) Anti-Proliferation Assay. […] Cells were thawed from a liquid nitrogen preserved state. Once cells were expanded and divided at their expected doubling times, screening began. Cells were seeded in their respective growth media in 96-well tissue culture treated plates at 2000 cells/well and placed in incubators at 37° C. the night before treatment. […] These T zero (T0) plates were read using luminescence on Spectramax Plate Readers. Treated assay plates were incubated with Compound for seventy-two hours. After seventy-two hours, plates were developed for endpoint analysis using CellTiter-Glo. The calculation for synergy score is provided below.
(§9) Growth Inhibition (GI) was used as a measure of cell viability. The cell viability of vehicle was measured at the time of dosing (T0) and after seventy-two hours (T72). A GI reading of 0% represents no growth inhibition—cells treated with compound and T72 vehicle signals are matched. A GI 100% represents complete growth inhibition—cells treated by compound and T0 vehicle signals are matched. […] A GI 200% represents complete death of all cells in the culture well. […] GI is calculated by applying the following test and equation: […]
(§10) We next compared the expected compound effect to the observed compound effect, and calculated the differences between the observed and the expected cell viability, expressed as % of control. […]

[12] = test system: SKOV3 (ovarian cancer, romidepsin resistant cell line); assay: Anti-proliferation assay (CellTiter-Glo), Bliss independence model, SKOV3; details: combination treatment with Romidepsin, SKOV3 (R), 72 h, greater than 10% considered synergistic
Protocol: as §8, §9, §10

[13] = test system: 5637 and SKOV3 cancer cell lines; assay: Anti-proliferation assay (CellTiter-Glo), Bliss independence model, overall conclusion; details: combination with romidepsin
Protocol: as §8, §9, §10

SMILES | Synergy Score [1] | Synergy Score [2] | Synergy Score [3] | Synergy Score [4] | Synergy Score [5] | Synergy Score [6] | Synergy Score [7] | Synergy Score [8] | Synergy Score [9] | Synergy Score [10] | differences between observed and expected cell viability (% of control) [11] | differences between observed and expected cell viability (% of control) [12] | combination effect (conclusion in words) [13]
O=C(/C=C/c1cccc(S(=O)(=O)Nc2ccccc2)c1)NO [Belinostat] | 9.09 | 4.60 | 4.58 | 11.40 | 7.23 | 14.80 | 14.50 | 9.26 | 6.88 | 3.21 |  |  | 
CCN1C(=O)CNc2ncc(-c3ccc(-c4nc[nH]n4)nc3C)nc21 [Compound 1, 1-ethyl-7-(2-methyl-6-(1H-1,2,4-triazol-3-yl)pyridin-3-yl)-3,4-dihydropyrazino[2,3-b]pyrazin-2(1H)-one] |  |  |  |  |  |  |  |  |  |  | 16% | 23% | 
CO[C@H]1CC[C@H](N2C(=O)CNc3ncc(-c4ccc(C(C)(C)O)nc4)nc32)CC1 [Compound 2, 7-(6-(2-hydroxypropan-2-yl)pyridin-3-yl)-1-((1r,4r)-4-methoxycyclohexyl)-3,4-dihydropyrazino-[2,3-b]pyrazin-2(1H)-one] |  |  |  |  |  |  |  |  |  |  | 19% | 27% | synergism was observed
Nc1ccccc1NC(=O)c1ccc(CNC(=O)OCc2cccnc2)cc1 [MS-275] | 11.80 | 7.64 | 2.18 | 10.00 | 1.65 | 14.60 | 9.75 | 5.84 | 7.79 | 6.71 |  |  | 
C/C=C1\NC(=O)[C@H]2CSSCC/C=C/[C@H](CC(=O)N[C@H](C(C)C)C(=O)N2)OC(=O)[C@H](C(C)C)NC1=O [Romidepsin, (1S,4S,7Z,10S,16E,21R)-7-ethylidene-4,21-bis(1-methylethyl)-2-oxa-12,13-dithia-5,8,20,23-tetrazabicyclo[8.7.6]tricos-16-ene-3,6,9,19,22-pentone] | 12.00 | 6.10 | 4.80 | 8.39 | 4.80 | 13.80 | 12.50 | 8.00 | 6.00 |  |  |  | 
